1 substance from US20050214738A1, “Conditional allele system” (priority 2003, published 2005) can be followed below.

The test deals with T1, FRB*Pax6 (UniProt P26883+P42345, K2095P/T2098L/W2101F).
T1 construct: The minimal FRB domain comprises amino acids 2025-2114 of human mTor; from tissue; host or cells: e13.5 cortical neural cultures (A14) and cultured whole embryos (A15) from Pax6^FRB* knock-in mice; fusion expressed from the targeted endogenous locus
The test is described as follows: Stabilization of FRB*Pax6 in cortical neural cultures (Western blot). It is filed as cell-based, mouse. From the text: e13.5 embryos were harvested from a Pax6^FRB*/+ intercross and cortical hemispheres isolated from individuals identified by eye and craniofacial morphology and later confirmed by genotype specific PCR. Pia were removed and neocortex dissected from […] in Hank's balanced salt solution (HBSS). Tissue was minced roughly and placed in centrifuge tubes containing HBSS+20% foetal calf serum. Tissue pieces were allowed to settle and the media was replaced first with HBSS+serum then HBSS alone. The tissue was incubated with 0.1% trypsin+2 mM EDTA 10 minutes at 37° C. then the reaction stopped with HBSS+serum. Cells were triturated to a suspension and plated on 24 well plates coated with matrigel in DMEM (high glucose) supplemented with FCS (5%), N2 (GIBCO) and antibiotics.
Extracts were prepared in RIPA buffer, protein quantified by Bradford Assay (Biorad) and 10 μg of total protein resolved by SDS-PAGE, transferred to PVDF (Millipore) filters and Pax6 or HSP90 identified with specific antibodies (1:1000, Covance and 1:2500 Transduction Laboratories, respectively) incubated 1 hour in TBS+10% nonfat milk. Secondary conjugated to horse radish peroxidase were purchased from Jackson immunochemicals and blots were developed by chemiluminescence (Amersham).

T1 sequence (P42345 2025-2114 K2095P/T2098L/W2101F): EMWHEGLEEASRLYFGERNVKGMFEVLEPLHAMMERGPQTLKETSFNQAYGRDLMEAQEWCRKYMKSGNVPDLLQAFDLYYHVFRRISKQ
T1 sequence (P26883 2-108): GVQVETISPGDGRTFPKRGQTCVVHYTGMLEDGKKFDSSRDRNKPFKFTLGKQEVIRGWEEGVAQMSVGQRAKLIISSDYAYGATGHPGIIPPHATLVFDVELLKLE

For the substance “C20-(R or S)-methallylrapamycin [C20-MaRap]”, for the setting “Pax6FRB*/FRB* cortical neural cultures, increasing quantities, 36 hours”, the “FRB*Pax6 protein level” value is given as “dose-dependent increase in FRB*Pax6 protein”. For the same substance, the “effect on wild-type Pax6 expression” value (cortical neural cultures) was “no effect”. Moreover, the “kinetics of FRB*Pax6 turnover” value (data not shown) is given as “markedly slowed”.
